How the values were obtained:
Assay in all cases: AUC of viability dose-response curve (% viability x log10 dose units); higher = less sensitive
Conditions in all cases: 48 h
NOMO1 = tested on: NOMO1
In short: (§1)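 Leukemia cells adapted to each medium were seeded in 1536-well plates (500 or 1000 cells/well) and given library compounds in DMSO for 48 h at 37°C. The 11 threefold doses spanned 47 μM to 0.79 nM, and CellTiter-Glo One luminescence was normalised per plate to DMSO and cell-free wells before four-parameter log-logistic fitting on log10 dose. Area under the curve was integrated with the trapezoidal rule, scaling curves above full viability and removing curves that failed quality control.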

SEM cells = tested on: SEM cells
In short: as §1

P12-Ichikawa = tested on: P12-Ichikawa
In short: as §1

[1] = RPMI 5 mM glucose + 10% dialyzed FBS

SMILES | AUC of viability dose-response curve (NOMO1; HPLM + 10% dialyzed FBS) | AUC of viability dose-response curve (NOMO1; RPMI 5 mM glucose + 10% FBS) | AUC of viability dose-response curve (NOMO1; [1]) | AUC of viability dose-response curve (SEM cells; HPLM + 10% dialyzed FBS) | AUC of viability dose-response curve (SEM cells; RPMI 5 mM glucose + 10% FBS) | AUC of viability dose-response curve (SEM cells; [1]) | AUC of viability dose-response curve (P12-Ichikawa; HPLM + 10% dialyzed FBS) | AUC of viability dose-response curve (P12-Ichikawa; RPMI 5 mM glucose + 10% FBS) | AUC of viability dose-response curve (P12-Ichikawa; [1])
CC(NC1=CC=CC=C1)C\2=C\C(=C/N3C(=O)\C=C(/N=C23)N4CCOCC4)C (centres undefined) | 466 | 451 | 462 | 475 | 451 | 447 | 470 | 456 | 466
COc1cc2nc(N(C)CCCNC(=O)C3CCCO3)nc(N)c2cc1OC (centres undefined) | 336 | 297 | 331 | 358 | 355 | 378 | 416 | 431 | 384
COC1=CC=CC2=C1C(=NC(=N2)C3=CC=CS3)NN4C(=O)\C=C(C)/C4=O | 269 | 290 | 265 | 264 | 282 | 270 | 318 | 302 | 297
COc1cnc(N[S+](=O)([O-])c2ccc(N)cc2)nc1 | 445 | 457 | 448 | 428 | 459 | 443 | 449 | 459 | 460
CC[C@H](CC[C@@H](C)[C@H]1CC[C@H]2[C@@H]3C\C=C/4C[C@@H](O)CC[C@]4(C)[C@H]3CC[C@]12C)C(C)C | 420 | 449 | 431 | 452 | 469 | 467 | 448 | 453 | 446
Cc1c(CCOc2ccc(C(=O)O)cc2)c2cc(Cl)ccc2n1C(c1ccccc1)c1ccccc1 | 457 | 442 | 443 | 470 | 450 | 451 | 442 | 468 | 459
OC(=O)C1=CC=C(NC2=NC3=C(C\N=C(/C4=CC(=CC=C34)Cl)C5=C(F)C=CC=C5F)C=N2)C=C1 | 394 | 343 | 362 | 389 | 373 | 365 | 344 | 345 | 353
CN(C)c1ccc(O)c2c1C[C@H]1C[C@H]3[C@H](N(C)C)C(O)=C(C(N)=O)C(=O)[C@@]3(O)C(O)=C1C2=O | 475 | 474 | 409 | 448 | 467 | 475 | 468 | 452 | 420
CC(=O)Nc1ccc(OC[C@](C)(O)C(=O)Nc2ccc([N+](=O)[O-])c(C(F)(F)F)c2)cc1 | 375 | 388 | 404 | 346 | 399 | 411 | 416 | 384 | 383
c1cncc(CN2CCC(n3ncc4c(N5CCOCC5)nc(-c5ccc6[nH]ccc6c5)nc43)CC2)c1 | 374 | 372 | 362 | 376 | 370 | 352 | 426 | 351 | 357
C\C1=C\C(=O)OC2=C1C=CC(=C2)O | 456 | 470 | 439 | 452 | 455 | 434 | 436 | 457 | 452
C[C@@H](NC1=CC=CC=C1C(O)=O)C/2=C/C(=C\N3C(=O)/C=C(\N=C23)N4CCOCC4)C | 338 | 331 | 336 |  |  |  | 407 | 359 | 370
Cc1ccccc1C(C(=O)NC1CCCCC1)N(C(=O)Cn1ccnc1C)c1cccc(F)c1 (centres undefined) | 452 | 456 | 455 | 449 | 462 | 438 | 442 | 461 | 466
Cl.Cl.Cl.O[C@@H](COc1cccc2ncccc12)CN1CCN([C@@H]2c3ccccc3[C@@H]3[C@H](c4ccccc42)C3(F)F)CC1 | 404 | 397 | 401 | 421 | 418 | 449 | 418 | 391 | 395
CN[S+](=O)([O-])Cc1ccc2[nH]cc(CCN(C)C)c2c1 | 454 | 443 | 454 | 442 | 431 | 456 | 467 | 457 | 460
CC1=C(/C=C/C(C)=C/C=C/C(C)=C/C=C/C=C(C)/C=C/C=C(C)/C=C/C2=C(C)CCCC2(C)C)C(C)(C)CCC1 | 450 | 444 | 459 | 477 | 458 | 474 | 469 | 465 | 440
N=C(CCSCc1csc(N=C(N)N)n1)N[S+](N)(=O)[O-] | 459 | 439 | 461 | 452 | 458 | 421 | 467 | 454 | 432
CC/C(=C(/c1ccc(O)cc1)c1ccc(OCCNC)cc1)c1ccccc1 | 443 | 459 | 452 | 410 | 412 | 405 | 432 | 414 | 405
CC(C)(C)c1cc(NC(=O)Nc2ccc(-c3cn4c(n3)sc3cc(OCCN5CCOCC5)ccc34)cc2)no1 | 432 | 394 | 435 | 188 | 232 | 176 | 468 | 409 | 442
CC(C)NCC(O)COc1ccc(COCCOC(C)C)cc1 (centres undefined) | 458 | 461 | 459 | 468 | 474 | 469 | 457 | 463 | 463
C[C@](O)(COc1ccc(C#N)cc1)C(=O)Nc1ccc(C#N)c(C(F)(F)F)c1 | 422 | 435 | 433 | 388 | 396 | 400 | 445 | 413 | 382
CC1(C)CCC[C@]2(C)[C@H]3CC(=O)O[C@]3(C)CC[C@@H]12 | 473 | 468 | 440 | 470 | 463 | 461 | 468 | 456 | 453
O=C([O-])C(O)Cc1ccc(O)c(O)c1 (centres undefined) | 447 | 416 | 434 | 398 | 413 | 387 | 453 | 452 | 438

SMILES | AUC of viability dose-response curve (NOMO1; HPLM + 10% dialyzed FBS) | AUC of viability dose-response curve (NOMO1; RPMI 5 mM glucose + 10% FBS) | AUC of viability dose-response curve (NOMO1; [1]) | AUC of viability dose-response curve (SEM cells; HPLM + 10% dialyzed FBS) | AUC of viability dose-response curve (SEM cells; RPMI 5 mM glucose + 10% FBS) | AUC of viability dose-response curve (SEM cells; [1]) | AUC of viability dose-response curve (P12-Ichikawa; HPLM + 10% dialyzed FBS) | AUC of viability dose-response curve (P12-Ichikawa; RPMI 5 mM glucose + 10% FBS) | AUC of viability dose-response curve (P12-Ichikawa; [1])
CN1[C@@H]2CC(OC(=O)[C@@H](CO)c3ccccc3)C[C@H]1[C@H]1O[C@H]12 (some centres undefined) | 452 | 417 | 451 | 445 | 443 | 442 | 474 | 469 | 435
CCCc1nc(C(C)(C)O)c(C(=O)O)n1Cc1ccc(-c2ccccc2-c2nn[nH]n2)cc1 | 439 | 454 | 461 |  |  |  | 448 | 452 | 413
CC1(C)O[C@@H]2C[C@H]3[C@@H]4CCC5=CC(=O)C=C[C@]5(C)[C@@]4(F)[C@@H](O)C[C@]3(C)[C@]2(C(=O)CO)O1 | 411 | 418 | 456 | 255 | 270 | 280 | 315 | 288 | 288
OC[C@H]1O[C@@H](O[C@@H]2[C@@H](CO)O[C@](O)(CO)[C@H]2O)[C@H](O)[C@@H](O)[C@H]1O | 448 | 453 | 444 | 458 | 460 | 457 | 456 | 447 | 436
CN(c1ncccc1CNc1nc(Nc2ccc3c(c2)CC(=O)N3)ncc1C(F)(F)F)[S+](C)(=O)[O-] | 451 | 448 | 446 | 362 | 342 | 321 | 462 | 447 | 459
O=C(NOCC(O)CO)c1cc(Br)c(F)c(F)c1Nc1ccc(I)cc1F (centres undefined) | 238 | 244 | 219 | 327 | 340 | 306 | 361 | 333 | 345
C=CC(=O)Nc1cccc(Oc2nc(Nc3ccc(N4CCN(C)CC4)cc3)ncc2Cl)c1 | 465 | 454 | 459 | 369 | 303 | 351 | 420 | 392 | 421
Cc1nc(NC(=O)N2CCC[C@H]2C(N)=O)sc1-c1ccnc(C(C)(C)C(F)(F)F)c1 |  |  |  | 384 | 431 | 400 | 424 | 386 | 399
CCC1(C)CC(=O)NC1=O (centres undefined) | 437 | 421 | 450 | 465 | 462 | 460 | 458 | 459 | 467
CC(C)C(C)/C=C/C(C)C1CCC2C3=CC=C4CC(O)CCC4(C)C3CCC21C (centres undefined) | 474 | 426 | 445 | 383 | 454 | 458 | 460 | 468 | 457
CCc1cc(Nc2nccc(-c3c(-c4ccc(OC)c(C(=O)Nc5c(F)cccc5F)c4)nc4ccccn34)n2)c(OC)cc1N1CCC(N2CCN([S+](C)(=O)[O-])CC2)CC1 | 459 | 464 | 457 | 423 | 435 | 386 | 453 | 451 | 453
CC(N[C@H]1C[C@@H]1c1ccccc1)c1ccc2c(c1)OCCO2 (some centres undefined) | 434 | 470 | 470 | 475 | 467 | 471 | 458 | 469 | 451
O=NN(CCCl)C(=O)NC1CCCCC1 | 474 | 472 | 475 | 445 | 475 | 433 | 468 | 453 | 462
COc1nccc(-c2c(-c3ccc(F)cc3)ncn2C2CCNCC2)n1 |  |  |  | 460 | 375 | 454 | 452 | 455 | 453
O=C(NCC[S+](=O)([O-])c1ccc(C(F)(F)F)cn1)c1ccc(Cl)cc1 | 457 | 461 | 463 | 448 | 450 | 446 | 470 | 455 | 452
CNC(=O)c1ccc(-c2cnc3ncc(Cc4ccc5ncccc5c4)n3n2)cc1F | 460 | 454 | 449 | 458 | 466 | 463 | 469 | 461 | 460
CC1CCC(C(=O)N(c2cc(C#CC(C)(C)C)sc2C(=O)O)C2CCC(O)CC2)CC1 (centres undefined) | 410 | 408 | 411 | 426 | 430 | 400 | 419 | 394 | 375
CC1(C)Cc2c(-c3ccccc3)c(-c3ccc(Cl)cc3)c(CC(=O)O)n2C1 | 454 | 454 | 458 | 451 | 425 | 407 | 444 | 451 | 466
COC1=CC2=NC=CC(=C2C=C1)OC3=CN=C(NC(=O)C/4=C(C)/N(CC(C)(C)O)N(C4=O)C5=CC=CC=C5)C=C3 | 430 | 431 | 411 |  |  |  | 425 | 414 | 420
CCCCn1c(=O)n(Cc2ccccc2F)c(=O)c2nc(Cc3ccc(NC(C)=O)cc3)[nH]c21 |  |  |  | 452 | 442 | 444 | 425 | 409 | 410
CCC[C@H](NC(=O)/C(C#N)=C/c1cccc(Br)n1)c1ccccc1 | 437 | 454 | 448 |  |  |  | 449 | 447 | 444
CC(C)[C@@H](N(CCCN)C(=O)C1=CC=C(C)C=C1)C/2=N/C3=CC(=CC=C3C(=O)N2CC4=CC=CC=C4)Cl | 123 | 82.4 | 106 |  |  |  | 61 | 66.9 | 97.9
CO[C@H]1/C=C/O[C@@]2(C)Oc3c(C)c(O)c4c(O)c(c5c(nc6cc(C)ccn65)c4c3C2=O)NC(=O)/C(C)=C\C=C\[C@H](C)[C@H](O)[C@@H](C)[C@@H](O)[C@@H](C)[C@H](OC(C)=O)[C@@H]1C |  |  |  | 410 | 394 | 375 |  |  | 
